In patent US12454520B2, “Protein degraders and uses thereof” (Kymera Therapeutics, Inc., priority 2018, dated 2025):

Target: T1, SMARCA2 (Homo sapiens, UniProt P51531)
T1 construct: endogenous in cells; host or cells: NCI-H1299
Assay: MSD SMARCA2 degradation in NCI-H1299 cell line
Format: cell-based
Settings: NCI-H1299 cells, percentage of SMARCA2 degradation after 24 hours
Method: Example 14. MSD SMARCA2 Degration in NCI-H1299 Cell Line
Cell Culture: Cells were cultured in exponential growth phase.
Compound Preparation and Treatment: NCI-H1299 cells were seeded into the 96-well plate at 4.0*10^4 cells per 100ul per well. Incubate the plate in the incubator overnight. The next day, compounds were diluted to designed stock concentration by TECAN, then perform a 3 fold, 9-point dilution via transferring 15 uL compound into 30 μL DMSO using Apricot. 200 nL diluted compound from compound source plate were transferred into the 96-intermediate plate as designated by using Echo550, followed with 100 ul culture medium to make the 2× compound solution. Cell plate were changed with 80 ul of fresh culture medium and 80 ul of 2× compound solution was added into the well to achieve the final designed concentration. Cell plate was then shaken at 720 rpm for 5 min and incubated for 24 hours in the incubator.
Sample Preparation: Media was aspirated from the cultures and the plate was washed with PBS twice. 60 ul of pre-chilled PIPA lysis buffer (Boston BioProducts BP-115D) with protease inhibitor were directly added into the well to lyze the cells for 20 minutes at 4° C. Cell lysates were collected.
MSD Procedure: The MSD plate was coated with 40 ul cell lysate and incubated at 4° C. overnight. The next day, the MSD coated bare plate was washed 3 times with 150 ul 1×TBST per well, blocked with 150 ul of blocking buffer per well, and shaken for 1 hour at RT, 600 rpm. Blocking buffer was 3% Blocker A in TBST. MSD plate was then washed 3 times with 150 ul 1×TBST per well and Primary Detection antibody (Rabbit anti-SMARCA2/BRM antibody, 100 μg/ml, ab223735) was added to a final [conc.]: 0.3 ug/ml, 25ul/well and shaken for 1 hour at RT, 600 rpm. Antibody was prepared in Antibody Detection buffer (1% Blocker A in 1×TBST). The MSD plate was then washed 3 times with 150 ul 1×TBST per well. Secondary Detection antibody (SULFO-TAG anti-species antibody) was then added to a final [conc.]: 1 μg/ml, 25 ul/well, and shaken for 1 hour at RT, 600 rpm. Antibodies were prepared in Antibody Detection buffer (1% Blocker A in 1×TBST). MSD plate was washed 3 times with 150 ul 1×TBST per well and 2×MSD reading buffer was added, 150 ul per well, and diluted from 4× with water. MSD instrument was then read.
Data Analysis: The percentage of relative level of SMARCA2 level was calculated following equation below.
LC: A2780, SMARCA2 negative cells. HC: NCI-H1299 cells treated with DMSO.
The letter codes for the percentage of SMARCA2 degradation after 24 hours (Dmax %) include: A (>90% degradation), B (>70-90% degradation), C (50-70% degradation), and D (<50% degradation).

T1 sequence (P51531 whole entry): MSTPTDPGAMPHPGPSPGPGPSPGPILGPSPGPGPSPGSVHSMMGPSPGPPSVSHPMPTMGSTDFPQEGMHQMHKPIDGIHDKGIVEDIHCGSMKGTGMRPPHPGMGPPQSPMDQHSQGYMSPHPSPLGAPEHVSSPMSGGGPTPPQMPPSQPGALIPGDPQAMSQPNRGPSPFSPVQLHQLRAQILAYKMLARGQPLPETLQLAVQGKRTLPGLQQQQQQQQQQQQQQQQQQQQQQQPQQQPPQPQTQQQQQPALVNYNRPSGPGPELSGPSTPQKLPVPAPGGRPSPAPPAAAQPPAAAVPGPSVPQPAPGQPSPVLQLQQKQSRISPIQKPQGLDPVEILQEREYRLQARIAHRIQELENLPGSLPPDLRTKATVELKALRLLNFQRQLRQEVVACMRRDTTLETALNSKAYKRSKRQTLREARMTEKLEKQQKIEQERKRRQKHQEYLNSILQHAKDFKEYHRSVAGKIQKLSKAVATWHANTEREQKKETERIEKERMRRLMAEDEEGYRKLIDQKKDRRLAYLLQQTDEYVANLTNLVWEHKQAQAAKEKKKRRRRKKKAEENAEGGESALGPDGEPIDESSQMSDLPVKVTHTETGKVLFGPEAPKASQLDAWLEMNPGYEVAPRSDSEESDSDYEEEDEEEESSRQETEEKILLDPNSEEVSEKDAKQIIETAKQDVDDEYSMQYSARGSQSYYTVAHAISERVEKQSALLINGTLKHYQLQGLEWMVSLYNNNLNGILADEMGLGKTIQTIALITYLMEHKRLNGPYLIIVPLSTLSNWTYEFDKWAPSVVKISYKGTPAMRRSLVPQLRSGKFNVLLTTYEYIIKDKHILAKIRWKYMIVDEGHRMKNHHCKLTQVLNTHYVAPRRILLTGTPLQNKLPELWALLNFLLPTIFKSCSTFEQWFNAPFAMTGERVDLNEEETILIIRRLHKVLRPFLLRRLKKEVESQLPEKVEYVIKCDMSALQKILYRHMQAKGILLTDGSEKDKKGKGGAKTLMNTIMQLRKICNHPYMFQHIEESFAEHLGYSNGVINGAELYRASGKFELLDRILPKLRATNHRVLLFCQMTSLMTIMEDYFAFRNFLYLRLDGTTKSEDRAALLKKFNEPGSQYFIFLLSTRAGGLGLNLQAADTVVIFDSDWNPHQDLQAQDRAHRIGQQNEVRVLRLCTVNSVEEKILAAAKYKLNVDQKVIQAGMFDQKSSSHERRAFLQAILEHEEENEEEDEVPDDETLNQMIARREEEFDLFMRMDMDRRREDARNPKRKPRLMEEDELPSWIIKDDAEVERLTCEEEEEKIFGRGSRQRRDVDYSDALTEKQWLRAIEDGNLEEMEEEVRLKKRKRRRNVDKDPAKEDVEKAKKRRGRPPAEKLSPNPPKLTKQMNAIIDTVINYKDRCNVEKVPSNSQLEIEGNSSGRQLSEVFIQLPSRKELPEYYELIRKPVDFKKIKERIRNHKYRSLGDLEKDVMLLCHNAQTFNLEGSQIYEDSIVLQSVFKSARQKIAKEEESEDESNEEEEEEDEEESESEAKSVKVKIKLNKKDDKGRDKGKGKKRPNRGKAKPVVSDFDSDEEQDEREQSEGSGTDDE

## Nc1nnc(-c2ccccc2O)cc1-c1ccc(CN2CCN(CCCCCCCc3ccc4c(c3)c3cccnc3n4C3CCC(=O)NC3=O)CC2)cc1 (stereo not shown) [I-75]
  Dmax: 70 to 90%

## Nc1nnc(-c2ccccc2O)cc1-c1ccc(CN2CCN(CCCCCCCCc3ccc4c(c3)c3cccnc3n4C3CCC(=O)NC3=O)CC2)cc1 (stereo not shown) [I-76]
  Dmax: > 90%

## Nc1nnc(-c2ccccc2O)cc1-c1ccc(CN2CCN(CCCCCCCCCc3ccc4c(c3)c3cccnc3n4C3CCC(=O)NC3=O)CC2)cc1 (stereo not shown) [I-77]
  Dmax: > 90%

## Nc1nnc(-c2ccccc2O)cc1-c1ccc(CN2CCN(CCCCCc3cccc4c3c3cccnc3n4C3CCC(=O)NC3=O)CC2)cc1 (stereo not shown) [I-78]
  Dmax: 50 to 70%

## Nc1nnc(-c2ccccc2O)cc1-c1ccc(CN2CCN(CCCCCCc3cccc4c3c3cccnc3n4C3CCC(=O)NC3=O)CC2)cc1 (stereo not shown) [I-79]
  Dmax: 50 to 70%

## Nc1nnc(-c2ccccc2O)cc1-c1ccc(CN2CCN(CCCCCCCc3cccc4c3c3cccnc3n4C3CCC(=O)NC3=O)CC2)cc1 (stereo not shown) [I-80]
  Dmax: > 90%

## Nc1nnc(-c2ccccc2O)cc1-c1ccc(CN2CCN(CCCCCc3ccnc4c3c3ccccc3n4C3CCC(=O)NC3=O)CC2)cc1 (stereo not shown) [I-81]
  Dmax: 70 to 90%

## Nc1nnc(-c2ccccc2O)cc1-c1ccc(CN2CCN(CCCCCCc3ccnc4c3c3ccccc3n4C3CCC(=O)NC3=O)CC2)cc1 (stereo not shown) [I-82]
  Dmax: 70 to 90%

## Nc1nnc(-c2ccccc2O)cc1-c1ccc(CN2CCN(CCCCCCCc3ccnc4c3c3ccccc3n4C3CCC(=O)NC3=O)CC2)cc1 (stereo not shown) [I-83]
  Dmax: 70 to 90%

## Nc1nnc(-c2ccccc2O)cc1-c1ccc(CN2CCN(CCCCOCCCc3ccc4c(c3)c3cccnc3n4C3CCC(=O)NC3=O)CC2)cc1 (stereo not shown) [I-84]
  Dmax: 50 to 70%

## CN(Cc1ccc(N2CCN(c3cc(-c4ccccc4O)nnc3N)CC2)cc1)CC1CCN(Cc2ccc3c(c2)c2cccnc2n3C2CCC(=O)NC2=O)CC1 (stereo not shown) [I-85]
  Dmax: > 90%

## Nc1nnc(-c2ccccc2O)cc1-c1ccc(CN2CCN(CCCc3ccc4c(c3)c3cccnc3n4C3CCC(=O)NC3=O)CC2)cc1 (stereo not shown) [I-86]
  Dmax: < 50%

## CN(Cc1ccc(N2CCN(c3cc(-c4ccccc4O)nnc3N)CC2)cc1)CC1CCN(Cc2cccc3c2c2cccnc2n3C2CCC(=O)NC2=O)CC1 (stereo not shown) [I-87]
  Dmax: < 50%

## Nc1nnc(-c2ccccc2O)cc1-c1ccc(CNCCOCCOCCCc2cnc3c(c2)c2ccccc2n3C2CCC(=O)NC2=O)cc1 (stereo not shown) [I-88]
  Dmax: 70 to 90%

## Nc1nnc(-c2ccccc2O)cc1-c1cnn(CC2CCN(CCCCOCCCc3cccc4c3c3cccnc3n4C3CCC(=O)NC3=O)CC2)c1 (stereo not shown) [I-89]
  Dmax: < 50%

## Nc1nnc(-c2ccccc2O)cc1N1CCN(Cc2cccc3c2c2cccnc2n3C2CCC(=O)NC2=O)CC1 (stereo not shown) [I-90]
  Dmax: < 50%

## Nc1nnc(-c2ccccc2O)cc1N1CCN(CCCc2cccc3c2c2cccnc2n3C2CCC(=O)NC2=O)CC1 (stereo not shown) [I-91]
  Dmax: < 50%

## Nc1nnc(-c2ccccc2O)cc1N1CCN(CCCCCc2cccc3c2c2cccnc2n3C2CCC(=O)NC2=O)CC1 (stereo not shown) [I-92]
  Dmax: < 50%

## CN(Cc1ccc(N2CCN(c3cc(-c4ccccc4O)nnc3N)CC2)cc1)Cc1cccc2c1c1cccnc1n2C1CCC(=O)NC1=O (stereo not shown) [I-93]
  Dmax: < 50%

## CN(CCCc1cccc2c1c1cccnc1n2C1CCC(=O)NC1=O)Cc1ccc(N2CCN(c3cc(-c4ccccc4O)nnc3N)CC2)cc1 (stereo not shown) [I-94]
  Dmax: 50 to 70%

## CN(CCCCCc1cccc2c1c1cccnc1n2C1CCC(=O)NC1=O)Cc1ccc(N2CCN(c3cc(-c4ccccc4O)nnc3N)CC2)cc1 (stereo not shown) [I-95]
  Dmax: < 50%

## Nc1nnc(-c2ccccc2O)cc1-c1cnn(CC2CCN(Cc3cccc4c3c3cccnc3n4C3CCC(=O)NC3=O)CC2)c1 (stereo not shown) [I-96]
  Dmax: 50 to 70%

## Nc1nnc(-c2ccccc2O)cc1-c1cnn(CC2CCN(CCCc3cccc4c3c3cccnc3n4C3CCC(=O)NC3=O)CC2)c1 (stereo not shown) [I-97]
  Dmax: > 90%

## Nc1nnc(-c2ccccc2O)cc1-c1cnn(CC2CCN(CCCCCc3cccc4c3c3cccnc3n4C3CCC(=O)NC3=O)CC2)c1 (stereo not shown) [I-98]
  Dmax: > 90%

## Nc1nnc(-c2ccccc2O)cc1N1CCN(CCCc2ccnc3c2c2ccccc2n3C2CCC(=O)NC2=O)CC1 (stereo not shown) [I-99]
  Dmax: < 50%

## Nc1nnc(-c2ccccc2O)cc1N1CCN(CCCCCc2ccnc3c2c2ccccc2n3C2CCC(=O)NC2=O)CC1 (stereo not shown) [I-100]
  Dmax: < 50%

## CN(CCCc1ccnc2c1c1ccccc1n2C1CCC(=O)NC1=O)Cc1ccc(N2CCN(c3cc(-c4ccccc4O)nnc3N)CC2)cc1 (stereo not shown) [I-101]
  Dmax: < 50%

## CN(CCCCCc1ccnc2c1c1ccccc1n2C1CCC(=O)NC1=O)Cc1ccc(N2CCN(c3cc(-c4ccccc4O)nnc3N)CC2)cc1 (stereo not shown) [I-102]
  Dmax: 50 to 70%

## Nc1nnc(-c2ccccc2O)cc1-c1cnn(CC2CCN(CCCc3ccnc4c3c3ccccc3n4C3CCC(=O)NC3=O)CC2)c1 (stereo not shown) [I-103]
  Dmax: > 90%

## Nc1nnc(-c2ccccc2O)cc1-c1cnn(CC2CCN(CCCCCc3ccnc4c3c3ccccc3n4C3CCC(=O)NC3=O)CC2)c1 (stereo not shown) [I-104]
  Dmax: > 90%

## Nc1nnc(-c2ccccc2O)cc1-c1ccc(CN2CCN(Cc3ccc4c(c3)c3cccnc3n4C3CCC(=O)NC3=O)CC2)cc1 (stereo not shown) [I-105]
  Dmax: < 50%

## Nc1nnc(-c2ccccc2O)cc1-c1cnn(C2CCN(CCCCc3ccc4c(c3)c3cccnc3n4C3CCC(=O)NC3=O)CC2)c1 (stereo not shown) [I-133]
  Dmax: > 90%

## Nc1nnc(-c2ccccc2O)cc1-c1cnn(CC2CCN(CCCCc3ccc4c(c3)c3cccnc3n4C3CCC(=O)NC3=O)CC2)c1 (stereo not shown) [I-134]
  Dmax: 70 to 90%

## Nc1nnc(-c2ccccc2O)cc1-c1cnn(C2CCN(CCCCCc3ccc4c(c3)c3cccnc3n4C3CCC(=O)NC3=O)CC2)c1 (stereo not shown) [I-135]
  Dmax: 50 to 70%

## Nc1nnc(-c2ccccc2O)cc1-c1cnn(C2CCN(CCCCCc3ccnc4c3c3ccccc3n4C3CCC(=O)NC3=O)CC2)c1 (stereo not shown) [I-137]
  Dmax: > 90%

## Nc1nnc(-c2ccccc2O)cc1N1CC2CCC(C1)N2c1ncc(C2CCN(CCCc3ccc4c(c3)c3cccnc3n4C3CCC(=O)NC3=O)CC2)cn1 (stereo not shown) [I-138, 3-[6-[3-[4-[2-[3-[3-amino-6-(2-hydroxyphenyl)pyridazin-4-yl]-3,8-diazabicyclo[3.2.1]octan-8-yl]pyrimidin-5-yl]-1-piperidyl]propyl]pyrido[2,3-b]indol-9-yl]piperidine-2,6-dione]
  Dmax: > 90%

## Nc1nnc(-c2ccccc2O)cc1-c1cnn(CC2COC(CCCCc3ccc4c(c3)c3cccnc3n4C3CCC(=O)NC3=O)OC2)c1 (stereo not shown) [I-140, 3-(6-(4-(5-((4-(3-amino-6-(2-hydroxyphenyl)pyridazin-4-yl)-1H-pyrazol-1-yl)methyl)-1,3-dioxan-2-yl)butyl)-9H-pyrido[2,3-b]indol-9-yl)piperidine-2,6-dione]
  Dmax: < 50%

## Nc1nnc(-c2ccccc2O)cc1-c1cnn([C@H]2CCCN(CCCc3ccc4c(c3)c3cccnc3n4C3CCC(=O)NC3=O)C2)c1 (stereo partly drawn) [I-141, 3-[6-[3-[(3S)-3-[4-[3-amino-6-(2-hydroxyphenyl)pyridazin-4-yl]pyrazol-1-yl]-1-piperidyl]propyl]pyrido[2,3-b]indol-9-yl]piperidine-2,6-dione]
  Dmax: 70 to 90%

## Nc1nnc(-c2ccccc2O)cc1-c1cnn(C2CCCN(CCCc3ccc4c(c3)c3cccnc3n4C3CCC(=O)NC3=O)C2)c1 (stereo not shown) [I-142]
  Dmax: < 50%

## Nc1nnc(-c2ccccc2O)cc1-c1cnn(C2CCCN(CCCc3ccnc4c3c3ccccc3n4C3CCC(=O)NC3=O)C2)c1 (stereo not shown) [I-143]
  Dmax: > 90%

## Nc1nnc(-c2ccccc2O)cc1-c1cnn(C2CCN(C3CCC(c4ccc5c(c4)c4cccnc4n5C4CCC(=O)NC4=O)CC3)CC2)c1 (stereo not shown) [I-144]
  Dmax: > 90%

## Nc1nnc(-c2ccccc2O)cc1N1CC2CCC(C1)N2c1ncc(C2CCN(CCCc3ccnc4c3c3ccccc3n4C3CCC(=O)NC3=O)CC2)cn1 (stereo not shown) [I-145, 3-(4-(3-(4-(2-(3-(3-amino-6-(2-hydroxyphenyl)pyridazin-4-yl)-3,8-diazabicyclo[3.2.1]octan-8-yl)pyrimidin-5-yl)piperidin-1-yl)propyl)-9H-pyrido[2,3-b]indol-9-yl)piperidine-2,6-dione]
  Dmax: > 90%

## Nc1nnc(-c2ccccc2O)cc1-c1cnn(C2CCN(Cc3cn(Cc4ccc5c(c4)c4cccnc4n5C4CCC(=O)NC4=O)nn3)CC2)c1 (stereo not shown) [I-146, 3-(6-((4-((4-(4-(3-amino-6-(2-hydroxyphenyl)pyridazin-4-yl)-1H-pyrazol-1-yl)piperidin-1-yl)methyl)-1H-1,2,3-triazol-1-yl)methyl)-9H-pyrido[2,3-b]indol-9-yl)piperidine-2,6-dione]
  Dmax: 70 to 90%
